Measurements reported in patent US20260284011A1, “COMPOUNDS FOR RESTORING SUSCEPTIBILITY TO BETA-LACTAM ANTIBIOTICS” (UNIVERSITY OF NOTRE DAME DU LAC, priority 2023, published 2026).

Assays:
BlaR = BlaR (Staphylococcus aureus, UniProt P18357); assay: Live-cell fluorescent assay for BlaR inhibition (Venus reporter); assay type: cell-based, S. aureus NRS144pCN52RI-Venus; details: compound at 100 mg/L^−1; CBAP 10 mg·L^−1; fluorescence after 2 h
From the text: Live-Cell Fluorescent Assay in Discovery and Mechanism of Action. We conceived of fluorescent constructs in the bla operon, for the purpose of screening (FIG. 2a). We removed the gene for the β-lactamase (blaZ) and put in its place individually the genes for the Green Fluorescent Protein (GFP), Venus (a yellow-fluorescent protein) or mCherry (a red-fluorescent protein) in the template plasmid pCN52. The three plasmids were named pCN52RI, pCN52RI-Venus and pCN52RI-mCherry, respectively. The genes for the fluorescent proteins were transcribed under the promoter of the blaZ gene and were regulated by the proteins BlaR and BlaI, as is the case for the wild-type bla operon.
We transformed separately S. aureus NRS144—a laboratory strain that accepts a foreign gene and harbors neither the bla nor the mec operons—with each of these plasmids. […] When induced, the fluorescent protein is produced and is detected (akin to expression of the resistance genes blaZ or mecA in typical MSSA and MRSA). […] The transformed strains were grown in tryptic soy broth medium for overnight culture and strain maintenance and incubated in cation-adjusted Mueller-Hinton broth medium for inhibitor screening in a 96-well microplate format. The culture without CBAP addition was the negative control. In order to select a desirable reporter construct, we compared the intensity of the fluorescence produced from each construct at the wavelengths given in FIG. 2a using the Cytation-5 multi-mode microplate reader. Among the three constructs, pCN52RI-Venus produced the best fluorescence intensity and pCN52RI-mCherry was the second best (FIG. 4).
(§1) The collection of the 100 compounds from the in-silico search was screened against S. aureus NRS144pCN52RI-Venus. The screening strategy was as follows. Bacteria grown to OD600 of 0.25 were exposed concurrently to CBAP (10 mg·L^−1) and the test compound (100 mg·L^−1). Fluorescence was recorded after two hours of incubation. OD600 values were also recorded to identify compounds with inherent antibacterial activity. Compound 1 (Chart 1) emerged—82% diminished fluorescence as an indication of the extent of BlaR inhibition—as a suitable template for structure elaboration. This effort led to the synthesis of several dozen benzimidazole and imidazole compounds. The progression of the iterative design is depicted in Chart 1 for four compounds, culminating in 4. […] The X-ray structures for the complexes of compounds 2 (non-covalent) and 4 (covalent) with the BlaR sensor domain are shown respectively in FIG. 2b (2.0 Å resolution) and FIG. 2c (1.97 Å resolution). Compound 4 makes a covalent bond with the catalytic Ser389 and creates a network of hydrogen bonds with the BlaR active site (FIG. 2c).
(§2) Fluorescent assay for screening of BlaR potential inhibitors. A 3-mL portion of lysogeny broth (LB) medium was inoculated with NRS144pCN52RI Venus from frozen stocks and grown overnight at 37° C. The overnight culture was then diluted 1:150 fold with fresh LB containing […] of erythromycin and incubated at 37° C. to an OD600 of 0.3, at which point fluorescence was induced by the addition of CBAP to a final concentration of 10 μg·mL^−1. The culture was aliquoted (99 L) into 96-well plate and 1 L of inhibitor solution (1 mg·mL^−1 in DMSO) was added to each well. Negative control (DMSO without CBAP) and positive control (CBAP without inhibitor) were included. The plate was incubated at 30° C. for 2 h with intermittent shaking. Fluorescence and OD600 measurements were taken by a Cytation-5 multimode microplate reader. Percent inhibition of BlaR and bacterial growth were calculated using absorbance unit (AU) and OD600 values of each sample entered into this formula: […]

[1] = tested on: S. aureus NRS144pCN52RI-Venus; assay: Bacterial growth inhibition (OD600) in the fluorescent screening assay; assay type: cell-based, Staphylococcus aureus; details: compound at 100 mg/L^−1; OD600 after 2 h
Procedure: as §1, §2

Sequence of BlaR (P18357 whole entry): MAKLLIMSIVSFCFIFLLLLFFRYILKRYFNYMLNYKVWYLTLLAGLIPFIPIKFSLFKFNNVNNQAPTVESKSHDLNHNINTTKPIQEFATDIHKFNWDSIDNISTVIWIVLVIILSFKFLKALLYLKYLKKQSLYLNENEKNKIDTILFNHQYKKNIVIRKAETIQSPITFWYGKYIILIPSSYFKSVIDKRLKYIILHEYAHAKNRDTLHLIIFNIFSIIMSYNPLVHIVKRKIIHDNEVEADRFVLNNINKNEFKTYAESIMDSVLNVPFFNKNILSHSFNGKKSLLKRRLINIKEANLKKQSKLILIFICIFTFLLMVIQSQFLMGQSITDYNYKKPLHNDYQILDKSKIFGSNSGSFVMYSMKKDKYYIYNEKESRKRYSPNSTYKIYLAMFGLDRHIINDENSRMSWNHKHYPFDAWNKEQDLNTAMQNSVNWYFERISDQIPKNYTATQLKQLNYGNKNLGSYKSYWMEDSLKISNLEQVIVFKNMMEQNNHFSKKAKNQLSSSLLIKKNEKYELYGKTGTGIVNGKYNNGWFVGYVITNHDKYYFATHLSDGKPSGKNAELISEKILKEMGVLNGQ

Structure (SMILES)	% Inhibition of BlaR (BlaR) [%]	% Inhibition of bacterial growth [1]
CC(=O)NCc1ccc2nc(S)n(Cc3ccc(C(F)(F)F)cc3C(F)(F)F)c2c1	70	0%
OC[C@@H](O)[C@H](O)[C@H](O)c1cn(Cc2ccccc2)c(=S)[nH]1	13	0%
OC[C@@H](O)[C@@H](O)c1cn(Cc2ccccc2)c(=S)[nH]1	11	0%
O=S(=O)(O)c1nc2ccccc2n1Cc1ccc(C(F)(F)F)cc1C(F)(F)F [Compound 1, 1-[[2,4-Bis(trifluoromethyl)phenyl]methyl]benzimidazole-2-sulfonic acid]	82	0%
OCc1cn(Cc2ccc(C(F)(F)F)cc2C(F)(F)F)c(=S)[nH]1 [Compound 2, 4-(Hydroxymethyl)-1-[[2,4-bis(trifluoromethyl)phenyl]methyl]-2H-imidazole-2-thione]	92	0%
OB(O)CSc1nc2ccccc2n1Cc1ccc(C(F)(F)F)cc1C(F)(F)F [Compound 3]	98	20%
FC(F)(F)c1ccc(Cn2c(=S)[nH]c3ccccc32)c(C(F)(F)F)c1 [Compound 8, 1-[[2,4-Bis(trifluoromethyl)phenyl]methyl]benzimidazole-2-thione]	65	10%
N#Cc1ccc2c(c1)[nH]c(=S)n2Cc1ccc(C(F)(F)F)cc1C(F)(F)F [Compound 9, 1-[2,4-bis(trifluoromethyl)benzyl]-5-nitrile-benzimidazole-2-thione]		97%
O=S(=O)(O)c1nc2ccccc2n1Cc1ccc(F)cc1C(F)(F)F [Compound 11]	78	0%
O=S(=O)(O)c1nc2ccccc2n1Cc1ccc(Cl)cc1 [Compound 12]	72	0%
O=S(=O)(O)c1nc2ccccc2n1Cc1ccccc1C(F)(F)F [Compound 13]	69	0%
NCc1ccc2nc(S)n(Cc3ccc(C(F)(F)F)cc3C(F)(F)F)c2c1 [Compound 14]	60	0%
COC(=O)c1ccc2nc(S)n(Cc3ccc(C(F)(F)F)cc3C(F)(F)F)c2c1 [Compound 15]	10	0%
COC(=O)c1ccc2nc(S(=O)(=O)O)n(Cc3ccc(C(F)(F)F)cc3C(F)(F)F)c2c1 [Compound 16]	20	0%
OCc1ccc2nc(S)n(Cc3ccc(C(F)(F)F)cc3C(F)(F)F)c2c1 [Compound 17]	0	99%
O=S(=O)(O)c1nc2ccc(CO)cc2n1Cc1ccc(C(F)(F)F)cc1C(F)(F)F [Compound 18]	97	0%
N#Cc1ccc2nc(N)n(Cc3ccc(C(F)(F)F)cc3C(F)(F)F)c2c1 [Compound 19]	55	0%
COC(=O)c1ccc2nc(N)n(Cc3ccc(C(F)(F)F)cc3C(F)(F)F)c2c1 [Compound 20]		0%

Structure (SMILES)	% Inhibition of BlaR (BlaR) [%]	% Inhibition of bacterial growth [1]
Nc1nc2ccc(CO)cc2n1Cc1ccc(C(F)(F)F)cc1C(F)(F)F [Compound 21]	89	0%
O=C(/C=C/c1ccc(F)cc1)NCc1ccc2nc(S)n(Cc3ccc(C(F)(F)F)cc3C(F)(F)F)c2c1 [Compound 23]	76	70%
O=C(/C=C/c1ccc(F)cc1)NCc1ccc2nc(S(=O)(=O)O)n(Cc3ccc(C(F)(F)F)cc3C(F)(F)F)c2c1 [Compound 24]		24, R^4 = F, R^5 = H, X = SO3H, 100; 100%
O=C(/C=C/c1ccc(Cl)cc1Cl)NCc1ccc2nc(S)n(Cc3ccc(C(F)(F)F)cc3C(F)(F)F)c2c1 [Compound 25]	75	50%
O=C(/C=C/c1ccc(F)cc1)NCc1ccc2nc(S(=O)(=O)O)n(Cc3ccc(C(F)(F)F)cc3C(F)(F)F)c2c1 [Compound 26]	99	100%
O=C(/C=C/c1ccc(C(F)(F)F)cc1F)NCc1ccc2nc(S)n(Cc3ccc(C(F)(F)F)cc3C(F)(F)F)c2c1 [Compound 27]	79	55%
O=C(/C=C/c1ccc(C(F)(F)F)cc1F)NCc1ccc2nc(S(=O)(=O)O)n(Cc3ccc(C(F)(F)F)cc3C(F)(F)F)c2c1 [Compound 28]	92	100%
O=C(CCc1ccc(F)cc1)NCc1ccc2nc(S)n(Cc3ccc(C(F)(F)F)cc3C(F)(F)F)c2c1 [Compound 29]	59	0%
O=C(CCc1ccc(F)cc1)NCc1ccc2nc(S(=O)(=O)O)n(Cc3ccc(C(F)(F)F)cc3C(F)(F)F)c2c1 [Compound 30]	86	0%
C[N+]12CC(=O)O[B-]1(CSc1nc3ccccc3n1Cc1ccc(C(F)(F)F)cc1C(F)(F)F)OC(=O)C2 (stereo not shown) [Compound 31, (T-4)-[N-[(Carboxy-κO)methyl]-N-methylglycinato(2-)-κN,κO][[N^1-[[2,4-bis(trifluoromethyl)phenyl]methyl]-1H-benzimidazole-1-yl]thiomethyl]boron]		13%
C[N+]12CC(=O)O[B-]1(CSc1nc3ccc(C#N)cc3n1Cc1ccc(C(F)(F)F)cc1C(F)(F)F)OC(=O)C2 (stereo not shown) [Compound 32]	93	20%
COC(=O)c1ccc2nc(SCB(O)O)n(Cc3ccc(C(F)(F)F)cc3C(F)(F)F)c2c1 [Compound 33]	95	13%
O=C(O)c1ccc2nc(SCB(O)O)n(Cc3ccc(C(F)(F)F)cc3C(F)(F)F)c2c1 [Compound 34]	92	18%
COC(=O)c1ccc2nc(SC[B-]34OC(=O)C[N+]3(C)CC(=O)O4)n(Cc3ccc(C(F)(F)F)cc3C(F)(F)F)c2c1 (stereo not shown) [Compound 35]	98	33%
OCCc1nc2ccccc2n1Cc1ccc(C(F)(F)F)cc1C(F)(F)F [Compound 44]		40%
CC(C)(C)OC(=O)NCc1cn(Cc2ccc(C(F)(F)F)cc2C(F)(F)F)c(=S)[nH]1 [Compound 47]		0%
NS(=O)(=O)c1nc([C@H](O)[C@H](O)CO)cn1Cc1ccccc1 [Compound 53]		49%
O=S(=O)(F)c1nc(CO)cn1Cc1ccc(C(F)(F)F)cc1C(F)(F)F [Compound 59]		83%
